From US20220274991A1, “SMALL MOLECULE INHIBITORS OF KU70/80 AND USES THEREOF” (Arizona Board of Regents on Behalf of the University of …, priority 2019, published 2022)

target: T1, Ku70/80 (Homo sapiens, UniProt P12956+P13010); test: EMSA IC50 (AMRI Ku70/80); assay type: binding; details: Hill equation fitted
T1 construct: purchased AMRI
T1 sequence (P12956 whole entry): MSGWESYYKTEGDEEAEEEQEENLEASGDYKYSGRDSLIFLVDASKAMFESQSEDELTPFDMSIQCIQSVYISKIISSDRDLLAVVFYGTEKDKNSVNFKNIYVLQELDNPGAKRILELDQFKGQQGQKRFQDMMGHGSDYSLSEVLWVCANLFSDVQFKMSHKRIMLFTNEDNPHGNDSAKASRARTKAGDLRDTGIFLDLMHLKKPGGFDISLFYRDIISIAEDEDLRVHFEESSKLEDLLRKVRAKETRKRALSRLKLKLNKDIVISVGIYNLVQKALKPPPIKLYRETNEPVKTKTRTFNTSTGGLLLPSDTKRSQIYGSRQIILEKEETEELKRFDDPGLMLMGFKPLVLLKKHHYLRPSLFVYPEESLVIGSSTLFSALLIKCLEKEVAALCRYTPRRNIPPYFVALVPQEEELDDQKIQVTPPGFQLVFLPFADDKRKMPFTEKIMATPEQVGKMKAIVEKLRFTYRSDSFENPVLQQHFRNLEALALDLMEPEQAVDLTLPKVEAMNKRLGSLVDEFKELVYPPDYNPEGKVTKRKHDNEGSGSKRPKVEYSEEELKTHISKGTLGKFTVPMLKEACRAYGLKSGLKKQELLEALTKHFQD
T1 sequence (P13010 whole entry): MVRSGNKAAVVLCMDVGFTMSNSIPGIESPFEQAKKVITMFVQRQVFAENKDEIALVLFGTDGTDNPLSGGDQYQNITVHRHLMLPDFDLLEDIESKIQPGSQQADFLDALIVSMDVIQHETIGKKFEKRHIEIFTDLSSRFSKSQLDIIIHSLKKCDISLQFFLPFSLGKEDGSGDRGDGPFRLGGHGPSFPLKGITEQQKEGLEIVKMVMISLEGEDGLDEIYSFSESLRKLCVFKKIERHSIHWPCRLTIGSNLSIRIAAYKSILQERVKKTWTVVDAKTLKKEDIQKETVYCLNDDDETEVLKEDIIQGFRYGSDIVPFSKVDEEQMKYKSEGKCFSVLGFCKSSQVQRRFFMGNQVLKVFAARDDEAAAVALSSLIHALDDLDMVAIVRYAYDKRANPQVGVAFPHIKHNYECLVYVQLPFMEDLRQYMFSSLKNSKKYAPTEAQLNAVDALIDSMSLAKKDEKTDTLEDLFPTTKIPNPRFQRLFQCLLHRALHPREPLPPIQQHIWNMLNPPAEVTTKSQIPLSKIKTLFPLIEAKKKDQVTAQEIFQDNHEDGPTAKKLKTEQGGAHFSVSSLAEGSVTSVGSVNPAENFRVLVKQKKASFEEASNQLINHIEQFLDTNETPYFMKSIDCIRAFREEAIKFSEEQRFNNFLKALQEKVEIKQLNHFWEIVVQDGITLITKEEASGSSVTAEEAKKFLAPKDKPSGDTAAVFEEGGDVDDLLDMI

| SMILES | IC50 [µM] |
| --- | --- |
| O=c1[nH]c2nc(NCCc3cccc(F)c3)ncc2c(=O)n1-c1ccc(N2CCOCC2)c(F)c1 | 6.9 |
| O=c1[nH]c2nc(NCCc3cccc(F)c3)ncc2c(=O)n1Cc1ccccc1F | 10 |
| COc1ccc(CCN(C)c2ncc3c(=O)n(-c4cccc(F)c4)c(=O)[nH]c3n2)cc1OC | 184 |
| O=c1[nH]c2nc(NCCc3cccc(F)c3)ncc2c(=O)n1CC1CCNCC1 | 45 |
| CC(C)Cn1c(=O)[nH]c2nc(NCCc3cccc(F)c3)ncc2c1=O | 5.3 |
| COc1c(F)cccc1-n1c(=O)[nH]c2nc(NCCc3cccc(F)c3)ncc2c1=O | 27 |
| O=c1[nH]c2nc(NCC3CCCc4c(F)cccc43)ncc2c(=O)n1-c1cccc(F)c1 (stereo not drawn) | 20 |
| O=c1[nH]c2nc(NCCc3cccc(F)c3)ncc2c(=O)n1-c1nccs1 | 43 |
| O=c1[nH]c2nc(N3CCc4cc(F)ccc4C3)ncc2c(=O)n1-c1cccc(F)c1 | 34 |
| CSc1ncc2c(=O)n(-c3ccc(Br)cc3)c(=O)[nH]c2n1 | 20 |
| CN(CCc1cccc(F)c1)c1ncc2c(=O)n(-c3cccc(F)c3)c(=O)[nH]c2n1 | 142 |
| O=c1[nH]c2nc(NCCc3cccc(F)c3)ncc2c(=O)n1-c1cc(F)ccc1F | 249 |
| O=c1[nH]c2nc(NCc3cccc4c(F)cccc34)ncc2c(=O)n1-c1cccc(F)c1 | 21 |
| O=c1[nH]c2nc(NCCc3cccc(F)c3)ncc2c(=O)n1CCO | 8.8 |
| O=c1[nH]c2nc(NCCc3cccc(F)c3)ncc2c(=O)n1-c1ccccn1 | 58 |

The next lines start with the values.

| IC50 [µM] | SMILES |
| --- | --- |
| 6.9 | NS(=O)(=O)c1ccc(-n2c(=O)[nH]c3nc(NCCc4cccc(F)c4)ncc3c2=O)cc1 |
| 20 | O=c1[nH]c2nc(NCCc3ccc4c(c3)OCCO4)ncc2c(=O)n1-c1cccc(F)c1 |
| 20 | O=c1[nH]c2nc(NCCc3ccc4c(c3)OC(F)(F)O4)ncc2c(=O)n1-c1cccc(F)c1 |
| 7.6 | O=c1[nH]c2nc(NCCc3cccc(F)c3)ncc2c(=O)n1-c1ccc(Br)cc1 |
| 33 | O=c1[nH]c2nc(NCCc3ccc(F)c(F)c3)ncc2c(=O)n1-c1cccc(F)c1 |
| 22 | COc1ccc(-n2c(=O)[nH]c3nc(NCCc4cccc(F)c4)ncc3c2=O)cc1OC |
| 18 | O=c1[nH]c2nc(NCCc3ccncc3)ncc2c(=O)n1-c1cccc(F)c1 |
| 28 | O=c1[nH]c2nc(NCCc3ccccc3)ncc2c(=O)n1-c1cccc(F)c1 |
| 50 | NS(=O)(=O)c1ccc(CCNc2ncc3c(=O)n(-c4cccc(F)c4)c(=O)[nH]c3n2)cc1 |
| 9.1 | O=c1[nH]c2nc(NCCc3ccc4c(c3)OCO4)ncc2c(=O)n1-c1cccc(F)c1 |
| 40 | O=c1[nH]c2nc(NCCc3cccnc3)ncc2c(=O)n1-c1cccc(F)c1 |
| 101 | O=c1[nH]c2nc(NCCc3ccc(O)c(F)c3)ncc2c(=O)n1-c1cccc(F)c1 |
| 11 | CCOC(=O)c1cccc(-n2c(=O)[nH]c3nc(NCCc4cccc(F)c4)ncc3c2=O)c1 |
| 54 | COc1ccc(CCNc2ncc3c(=O)n(-c4cccc(F)c4)c(=O)[nH]c3n2)cc1F |
| 196 | O=C(O)c1ccc(CNc2ncc3c(=O)n(-c4cccc(F)c4)c(=O)[nH]c3n2)cc1 |
| 11 | COc1ccc(-n2c(=O)[nH]c3nc(NCCc4cccc(F)c4)ncc3c2=O)cc1F |
| 18 | O=c1[nH]c2nc(NCCc3ccccn3)ncc2c(=O)n1-c1cccc(F)c1 |
| 245 | O=c1[nH]c2nc(NCCc3cccc(F)c3)ncc2c(=O)n1-c1cccnc1 |
